Assay results taken from patent US20080208039A1, “System and method of performing therapeutic endovascular interventions” (Wisconsin Alumni Research Foundation, priority 2007, published 2008).

Assay: Diffusion of a fluorescent probe in swollen gelatin gel by FRAP
Assay type: physicochemical
From the text: To assess the stability of DTPA[Gd(III)] in the gelatin coating, the diffusion of a fluorescence probe in gelatin was studied by the technique of fluorescence recovery after photobleaching (FRAP). The instrument and data analysis scheme are described in Kim, S. H. and Yu, H., J. Phys. Chem. 1992, 96, 4034, which is hereby fully incorporated by reference. Fluorescein was used as the fluorescence probe due, in part, to its molecular size being roughly the same as that of DTPA[Gd(III)].
The focus of the study was to examine the possible retardation effects of gelatin concentration and cross-link density on the diffusion, which was determined at room temperature, i.e., below the gel point of gelatin. The diffusion of fluorescein probe slows down with the increase of gelatin concentration. The diffusion coefficient decreases from 1.5×10-10 to 9×10-12 m2s-1 when the concentration of gelatin increases from 9% to 40%. […] Accordingly, the probe diffusion is more likely controlled by the concentration of gelatin rather than the cross-link density. On the other hand, the cross-link density may determine the swelling ratio of gelatin, i.e., the concentration of gelatin in aqueous solution. […]

Row | Structure (SMILES) | time to diffuse out of the gelatin coating (coating thickness 60 μm, diffusion coefficient 9×10-12 m2s-1) | fluorescence remaining in gelatin films after soaking (gelatin films soaked in water for 18 hours, including films not cross-linked)
1 | O=C(O)CN(CCN(CC(=O)O)CC(=O)O)CCN(CC(=O)O)CC(=O)O [DTPA, diethylenetriaminepentaacetic acid] | about 67 seconds | 
2 | O=C1OC2(c3ccc(O)cc3Oc3cc(O)ccc32)c2ccccc21 [fluorescein] |  | still fluorescence signal
